Data published in ChEMBL document CHEMBL5226291, “The race to treat COVID-19: Potential therapeutic agents for the prevention and treatment of SARS-CoV-2” (Eur J Med Chem, 2021).
pEC50, pIC50: −log10 of the molar value. ≈ marks a conversion by molar mass, not a printed value. Square brackets hold non-standard residues; d marks the D form. Peptide text beside a SMILES is read from it. * marks the point of attachment. ξ: configuration not given here. Decanoyl = CCCCCCCCCC(=O)*; ξF = NC(Cc1ccccc1)C(=O)O; Cbz = O=C(OCc1ccccc1)*; CH2Cl = ClC*

Legend:
SARS-CoV-2 [1] = format: functional; settings: Severe acute respiratory syndrome coronavirus 2, Vero C1008; time 18 hrs; read-out: ED50 (the source's name)
[2] = Cytotoxicity against African green monkey Vero E6 cells by CCK-8 assay; format: toxicity, cell-based, Vero C1008; settings: chlorocebus sabaeus
SARS-CoV-2 [3] = format: functional, organism-based; settings: Severe acute respiratory syndrome coronavirus 2, Vero C1008, 48 h
[4] = target: Replicase polyprotein 1ab (Severe acute respiratory syndrome coronavirus 2, UniProt P0DTD1); assay: Inhibition of SARS-COV2 main protease using Mca-AVLQ-SGFR-K as substrate by Fluorescence microplate reader assay
SARS-CoV [5] = assay: Antiviral activity against SARS-CoV infected in HeLa cells expressing human TMPRSS2 assessed as inhibition of viral replication measured after 20 hrs by fluorescence microscopy; format: functional, organism-based; settings: Severe acute respiratory syndrome-related coronavirus
SARS-CoV [6] = assay: Antiviral activity against SARS-CoV infected in HeLa cells expressing human TMPRSS2 assessed as inhibition of viral replication at 10 uM measured after 20 hrs in presence of EST by fluorescence microscopy; format: functional; settings: Severe acute respiratory syndrome-related coronavirus
SARS-CoV [7] = assay: Antiviral activity against SARS-CoV infected in HeLa cells expressing human TMPRSS2 assessed as inhibition of viral replication at 100 uM measured after 20 hrs by fluorescence microscopy; format: functional; settings: Severe acute respiratory syndrome-related coronavirus
[8] = target: Disintegrin and metalloproteinase domain-containing protein 17 (Mus musculus, UniProt Q9Z0F8); assay: Inhibition of mouse ADAM17 expressed in HEK293 cells overexpressed with ACE2 assessed as inhibition of ACE2 shedding incubated for 65 mins in presence of PMA by immunoblotting assay; format: cell-based
Sequence of Disintegrin and metalloproteinase domain-containing protein 17 (Q9Z0F8 whole entry, the tested form may be a part): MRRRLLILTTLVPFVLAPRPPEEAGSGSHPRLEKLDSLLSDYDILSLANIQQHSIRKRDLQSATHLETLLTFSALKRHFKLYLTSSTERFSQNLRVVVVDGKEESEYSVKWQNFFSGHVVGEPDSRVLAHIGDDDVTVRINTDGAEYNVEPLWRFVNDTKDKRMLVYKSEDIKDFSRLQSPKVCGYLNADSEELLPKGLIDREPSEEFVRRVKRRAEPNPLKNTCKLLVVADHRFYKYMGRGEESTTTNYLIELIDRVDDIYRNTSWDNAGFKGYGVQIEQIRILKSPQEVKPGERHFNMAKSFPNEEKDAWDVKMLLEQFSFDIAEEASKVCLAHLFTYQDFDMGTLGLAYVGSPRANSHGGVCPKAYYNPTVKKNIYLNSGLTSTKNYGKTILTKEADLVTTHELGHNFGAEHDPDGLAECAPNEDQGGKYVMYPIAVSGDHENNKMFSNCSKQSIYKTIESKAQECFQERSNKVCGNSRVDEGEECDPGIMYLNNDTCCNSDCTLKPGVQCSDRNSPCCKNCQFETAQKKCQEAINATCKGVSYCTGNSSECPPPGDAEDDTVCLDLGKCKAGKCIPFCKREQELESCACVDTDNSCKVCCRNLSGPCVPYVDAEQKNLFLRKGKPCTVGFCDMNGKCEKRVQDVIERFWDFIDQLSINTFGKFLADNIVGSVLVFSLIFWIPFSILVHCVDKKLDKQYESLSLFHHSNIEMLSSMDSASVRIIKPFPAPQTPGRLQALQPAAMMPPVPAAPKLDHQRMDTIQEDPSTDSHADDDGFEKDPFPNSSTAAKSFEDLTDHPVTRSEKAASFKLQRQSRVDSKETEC

SARS-CoV [9] = format: functional, organism-based; settings: Severe acute respiratory syndrome-related coronavirus, Vero C1008, 48 h
[10] = Cytotoxicity against human HEK293T cells by XTT assay; format: toxicity, cell-based, HEK-293T
Procathepsin L [11] = target: T1, Procathepsin L (Homo sapiens, UniProt P07711); assay: Inhibition of recombinant Cathepsin L (unknown origin) using Z-Phe-Arg-AMC as substrate by fluorometric assay
T1 sequence (P07711 whole entry): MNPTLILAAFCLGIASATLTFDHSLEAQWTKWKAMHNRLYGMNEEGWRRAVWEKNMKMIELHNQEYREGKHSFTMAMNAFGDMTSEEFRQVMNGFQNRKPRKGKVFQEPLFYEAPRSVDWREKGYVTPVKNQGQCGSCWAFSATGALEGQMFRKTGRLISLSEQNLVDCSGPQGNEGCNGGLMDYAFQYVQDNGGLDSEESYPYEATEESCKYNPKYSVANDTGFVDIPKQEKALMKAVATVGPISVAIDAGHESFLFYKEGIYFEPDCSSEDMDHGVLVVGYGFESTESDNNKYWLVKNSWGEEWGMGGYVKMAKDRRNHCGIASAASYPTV

SARS-CoV [12] = format: functional, organism-based; settings: Severe acute respiratory syndrome-related coronavirus, HEK-293T, 48 h
[13] = Cytotoxicity against African green monkey Vero E6 cells by MTT assay; format: toxicity, cell-based, Vero C1008; settings: chlorocebus sabaeus
SARS-CoV [14] = format: functional, organism-based; settings: Severe acute respiratory syndrome-related coronavirus, BJ01, Vero C1008, 64 h
[15] = Selectivity index. ratio of CC50 for cytotoxicity against African green monkey Vero E6 cells to EC50 for antiviral activity against wild type SARS-CoV BJ01 infected in Vero E6 cells; format: toxicity, cell-based, Vero C1008; settings: read-out: Ratio CC50/EC50
[16] = Cytotoxicity against human Huh-7 cells incubated for 3 days by XTT assay; format: toxicity, cell-based; settings: time 3 day
SARS-CoV [17] = format: functional, organism-based; settings: Severe acute respiratory syndrome-related coronavirus, Vero C1008
[18] = system: Middle East respiratory syndrome-related coronavirus; assay: Antiviral activity against recombinant MERS-CoV pseudovirus infected in Huh-7 cells assessed as inhibition of viral replication measured after 72 hrs by luminometer; format: functional, organism-based; settings: Huh-7, 72 h
[19] = Selectivity index. ratio of CC50 for cytotoxicity against human Huh-7 cells to IC50 for antiviral activity against MERS-CoV pseudovirus infected in Huh-7; format: toxicity, cell-based; settings: read-out: Ratio CC50/IC50
[20] = target: Replicase polyprotein 1ab (Severe acute respiratory syndrome coronavirus 2) (UniProt P0DTD1); assay: Inhibition of recombinant SARS-COV2 main protease using Mca-AVLQ-SGFR-Lys-NH2 as substrate at 1 uM by FRET based cleavage assay
[21] = system: Middle East respiratory syndrome-related coronavirus; assay: Antiviral activity against wild type MERS-CoV infected in HEK293T/17 cells assessed as inhibition of viral replication by immunoblotting assay; format: functional, organism-based
SARS-CoV [22] = assay: Antiviral activity against SARS-CoV infected in HEK293T cells assessed as reduction in viral replication incubated for 7 hrs by luciferase assay; format: functional, organism-based; settings: Severe acute respiratory syndrome-related coronavirus, HEK-293T
Procathepsin L [23] = target: T1, Procathepsin L; assay: Inhibition of human liver Cathepsin L using Z-Phe-Arg-AMC as substrate incubated for 30 mins by fluorometric assay
Ebolavirus [24] = assay: Antiviral activity against Ebolavirus infected in HEK293T cells assessed as reduction in viral replication incubated for 7 hrs by luciferase assay; format: functional, organism-based; settings: Orthoebolavirus, HEK-293T
Ebolavirus [25] = format: functional, organism-based; settings: Orthoebolavirus, Vero C1008, 120 h
Zika virus = assay: Antiviral activity against Zika virus MR766 infected in Vero cells assessed as reduction in viral replication by plaque reduction assay; format: functional, organism-based
SARS-CoV-2 [26] = format: functional, organism-based; settings: Severe acute respiratory syndrome coronavirus 2, Vero C1008, 48 h; remark: listed apart in the source
SARS-CoV-2 [27] = format: functional, organism-based; settings: Severe acute respiratory syndrome coronavirus 2, Vero C1008, 96 h
SARS-CoV [28] = assay: Antiviral activity against SARS-CoV infected in HEK293 cells expressing human ACE2 assessed as inhibition of viral replication measured after 40 hrs by luciferase assay; format: functional, organism-based; settings: Severe acute respiratory syndrome-related coronavirus, HEK293, 40 h
[29] = Cytotoxicity against human HEK293T cells; format: toxicity, cell-based, HEK-293T
[30] = Antiviral activity against Human coronavirus NL63 infected in HEK293T cells expressing human ACE2 assessed as inhibition of viral replication incubated for 2 days by Dual-Glo luciferase assay; format: functional, cell-based; settings: Human coronavirus NL63, HEK-293T, 48 h
[31] = system: Middle East respiratory syndrome-related coronavirus; assay: Antiviral activity against recombinant MERS-CoV pseudovirus infected in Vero cells assessed as inhibition of viral replication incubated for 2 days by Dual-Glo luciferase assay; format: functional, organism-based; settings: 48 h

## CCN(CC)CCCC(C)Nc1ccnc2cc(Cl)ccc12 (stereo unspecified) [CHLOROQUINE]
SARS-CoV-2 [1]
  pEC50: 5.36
[2]
  CC50: > 100 µM
SARS-CoV-2 [3]
  pEC50: 5.95

## Cn1sc(=O)n(Cc2ccccc2)c1=O
[4]
  pIC50: 5.60

## NC(=O)c1ncn([C@@H]2O[C@H](CO)[C@@H](O)[C@H]2O)n1 [RIBAVIRIN]
[2]
  CC50: > 400 µM

## CN(C)C(=O)COC(=O)Cc1ccc(OC(=O)c2ccc(NC(=N)N)cc2)cc1 [CAMOSTAT]
SARS-CoV [5]
  pIC50: 5.00
SARS-CoV [6]
  inhibition at 10 µM: > 95%
SARS-CoV [7]
  inhibition at 100 µM: 65%

## CC(C)CC(CC(=O)NO)C(=O)N[C@H](C(=O)N[C@@H](C)C(=O)NCCN)C(C)(C)C (stereo partly specified)
[8]
  pIC50: 6.70

## Nc1nc2c(ncn2CCC(CO)CO)c(=O)[nH]1 [PENCICLOVIR]
[2]
  CC50: > 400 µM
SARS-CoV [9]
  pEC50: 4.02

## C/C(=N\NC(N)=S)c1cccs1
[10]
  CC50: < 100 µM
Procathepsin L [11]
  pIC50: 5.27
SARS-CoV [12]
  pEC50: 5.19

## CCC(CC)COC(=O)[C@H](C)N[P@](=O)(OC[C@H]1O[C@@](C#N)(c2ccc3c(N)ncnn23)[C@H](O)[C@@H]1O)Oc1ccccc1
SARS-CoV [9]
  pEC50: 7.16

## O=C(OC[C@H]1O[C@@H](OC(=O)c2cc(O)c(O)c(O)c2)[C@H](OC(=O)c2cc(O)c(O)c(O)c2)[C@H](OC(=O)c2cc(O)c(O)c(O)c2)[C@@H]1O)c1cc(O)c(O)c(O)c1
[13]
  CC50: 1.08 µM
SARS-CoV [14]
  pEC50: 5.35
[15]
  selectivity ratio: 240

## COc1ccc(S(=O)(=O)O)cc1/N=N/c1c(S(=O)(=O)O)cc2cc(Nc3nc(Nc4ccccc4)nc(Nc4cc(C)c(/N=N/c5cc(S(=O)(=O)O)cc6cc(S(=O)(=O)O)cc(O)c56)cc4OC)n3)ccc2c1O
[16]
  CC50 at 72 h: 26.9 µM
SARS-CoV [17]
  pIC50: 5.41
[18]
  pIC50: 6.22
[19]
  selectivity ratio: 45

## O=C[C@H](C[C@@H]1CCNC1=O)NC(=O)[C@H](CC1CCCCC1)NC(=O)c1cc2ccccc2[nH]1
[20]
  inhibition: 100%
[2]
  CC50: > 100 µM

## CCCCCCCCCC(=O)N[C@@H](CCCNC(=N)N)C(=O)N[C@H](C(=O)N[C@@H](CCCCN)C(=O)N[C@@H](CCCNC(=N)N)C(=O)CCl)C(C)C (Decanoyl-RVKR-CH2Cl)
[21]
  pIC50: 4.12

## CN1CCN(c2ccc(CNC(=O)c3ccno3)cc2)CC1
[10]
  CC50: > 100 µM

## O=C[C@H](C[C@@H]1CCNC1=O)NC(=O)[C@H](Cc1cccc(F)c1)NC(=O)c1cc2ccccc2[nH]1
[20]
  inhibition: 86%
[2]
  CC50: > 100 µM

## CC(C)(C)OC(=O)N[C@@H](Cc1c[nH]c2ccccc12)C(=O)NNC(=O)OCC(=O)N1CCCc2ccccc21
SARS-CoV [22]
  pIC50: 3.56
Procathepsin L [23]
  pIC50: 5.16
Ebolavirus [24]
  pIC50: 3.71

## NC(=O)c1nc(F)cnc1O
[2]
  CC50: > 400 µM
Ebolavirus [25]
  EC50: 10.5 µg/mL (≈ 66.8 µM)
Zika virus
  EC50: 3.5 µg/mL (≈ 22.3 µM)

## CCN(CCO)CCCC(C)Nc1ccnc2cc(Cl)ccc12 (stereo unspecified) [HYDROXYCHLOROQUINE]
SARS-CoV-2 [26]
  pEC50: 6.14

## Cc1cc(C(=O)N[C@@H](C)C(=O)N[C@H](C(=O)N[C@@H](CC(C)C)C(=O)N[C@H](/C=C\C(=O)OCc2ccccc2)C[C@@H]2CCNC2=O)C(C)C)no1
SARS-CoV-2 [27]
  pEC50: 4.78

## Cc1cccc(C)c1OCC(=O)N[C@@H](Cc1ccccc1)[C@@H](O)C[C@H](Cc1ccccc1)NC(=O)[C@H](C(C)C)N1CCCNC1=O [LOPINAVIR]
SARS-CoV-2 [3]
  pEC50: 4.58

## O=c1c(O)c(-c2ccc(O)c(O)c2)oc2cc(O)cc(O)c12 [QUERCETIN]
[13]
  CC50: 3.32 µM

## O=c1cc(-c2ccc(O)c(O)c2)oc2cc(O)cc(O)c12 [LUTEOLIN]
[13]
  CC50: 0.155 µM
SARS-CoV [14]
  pEC50: 4.97
[15]
  selectivity ratio: 14.6

## CC(C)C[C@H](CC(=O)NO)C(=O)N[C@@H](Cc1ccc2ccccc2c1)C(=O)N[C@@H](C)C(N)=O
[8]
  pIC50: 7.00

## CC(C)[C@H](NC(=O)OCc1ccccc1)C(=O)NC(C=O)Cc1ccccc1 (stereo partly drawn) (Cbz-Val-[ξF]-aldehyde)
SARS-CoV [28]
  pEC50: 7.00

## CN1CCN(C(=O)N[C@@H](Cc2ccccc2)C(=O)N[C@H](/C=C/S(=O)(=O)c2ccccc2)CCc2ccccc2)CC1 [K-777]
[29]
  CC50: > 10 µM
[30]
  pIC50: > 8.15
[31]
  pIC50: 7.34
